Experimental data reported in US10221163B2 (priority 2015, dated 2019).
Where two headings read alike, the source gives them in different places.

Legend:
NDM-1 = NDM-1 (Klebsiella pneumoniae, UniProt C7C422); test: biochemical; format: biochemical; conditions: fluorescence assay, CCF2-FA substrate, 1 pM enzyme, 2 hours at 25° C., read-out: NDM-1 IC50
Method in brief: (§1)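 Enzyme activity was measured by fluorescence using CCF2-FA, a cephalosporin-linked 7-hydroxycoumarin/fluorescein substrate, with inhibitor, metallo-β-lactamase and substrate incubated together for 2 hours at 25° C. IC50 came from a 4-parameter fit of inhibition versus log inhibitor concentration.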

IMP-1 = IMP-1 (Serratia marcescens, UniProt P52699); test: biochemical; format: biochemical; conditions: fluorescence assay, CCF2-FA substrate, 2 pM enzyme, 2 hours at 25° C., read-out: IMP-1 IC50
Sequence of IMP-1 (P52699 whole entry, looked up, species assumed): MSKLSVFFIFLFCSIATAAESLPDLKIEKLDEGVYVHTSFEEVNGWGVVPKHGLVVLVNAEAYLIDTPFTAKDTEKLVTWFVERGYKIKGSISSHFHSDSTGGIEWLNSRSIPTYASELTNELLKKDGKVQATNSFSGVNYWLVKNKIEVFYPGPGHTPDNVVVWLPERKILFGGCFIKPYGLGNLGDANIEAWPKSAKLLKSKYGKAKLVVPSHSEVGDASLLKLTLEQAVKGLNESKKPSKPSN
Method in brief: as §1

[1] = tested on: Pseudomonas aeruginosa efflux− (MB9799), IMP-1; format: cell-based; conditions: concentration restoring susceptibility to imipenem at 2 μg/mL in the presence of a class A, C, D serine β-lactamase inhibitor closely related to relebactam
Method in brief: (§2)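 P. aeruginosa PAO1-derived IMP-1 strains, efflux+ MB9798 and efflux− MB9799, tested by standard microbroth MIC with imipenem and/or ceftazidime fixed, usually at CLSI breakpoint, plus fixed class A/C β-lactamase inhibitor against AmpC. Inhibitor titrated; concentration restoring susceptibility recorded; MB9798/MB9799 fold difference indicates efflux.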

[2] = tested on: Serratia marcescens expressing IMP-1 (CL5741); format: cell-based; conditions: with imipenem 1 μg/ml; 95% inhibition of bacterial growth
Method in brief: (§3)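 Clinical isolates (E. coli NDM-1, S. marcescens IMP-1, K. pneumoniae VIM-1) were diluted 1:100 from saline suspension into 1.1×CAMHB and exposed to test compound with imipenem at 1 μg/ml. Plates were incubated at 35° C for 22 hours to 24 hours, and growth was read by absorbance.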

[3] = tested on: Klebsiella pneumoniae expressing VIM-1 (IHMA599644); format: cell-based; conditions: with imipenem 1 μg/ml; 95% inhibition of bacterial growth
Method in brief: as §3

[4] = tested on: Escherichia coli expressing NDM-1 (CLB30005, CLB30016); format: cell-based; conditions: with imipenem 1 μg/ml; 95% inhibition of bacterial growth
Method in brief: as §3

VIM-1 = VIM-1 (Pseudomonas aeruginosa (strain ATCC 15692 / DSM 22644 / CIP 104116 / JCM 14847 / LMG 12228 / 1C / PRS 101 / PAO1), UniProt A0A0F7KYQ8); test: biochemical; conditions: CCF2-FA substrate, 30 pM enzyme, 2 hours at 25° C.
Method in brief: as §1

[5] = tested on: Pseudomonas aeruginosa MB9798 vs MB9799; conditions: ratio MITC95 PA_9798/MITC95 PA_9799
Method in brief: as §2

[6] = tested on: Pseudomonas aeruginosa efflux+ (MB9798), IMP-1; format: cell-based; conditions: concentration restoring susceptibility to imipenem at 2 μg/mL in the presence of a class A, C, D serine β-lactamase inhibitor closely related to relebactam
Method in brief: as §2

[7] = fluorescence assay, read-out: VIM-1 IC50

Sequence of NDM-1 (C7C422 whole entry, looked up, species assumed): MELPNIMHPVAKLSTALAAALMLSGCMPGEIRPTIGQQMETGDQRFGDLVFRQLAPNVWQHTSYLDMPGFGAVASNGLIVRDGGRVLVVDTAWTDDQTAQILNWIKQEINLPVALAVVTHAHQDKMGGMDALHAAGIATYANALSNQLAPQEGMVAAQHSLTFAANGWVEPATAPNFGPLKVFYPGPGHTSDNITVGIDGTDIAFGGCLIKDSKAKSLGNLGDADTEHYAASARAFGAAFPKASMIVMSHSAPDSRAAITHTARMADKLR

Row | SMILES | IC50 (NDM-1) | IC50 (IMP-1) | P. aeruginosa expressing IMP-1, efflux − (MB9799) MITC95 [1] | Serratia marcescens expressing IMP-1 (CL5741) MITC95 [2] | Klebsiella pneumoniae expressing VIM-1 (IHMA599644) MITC95 [3] | Escherichia coli expressing NDM-1 (CLB30016) MITC95 [4] | IC50 (VIM-1; [7]) | Efflux ratio [5] | P. aeruginosa expressing IMP-1, efflux + (MB9798) MITC95 [6] | IC50 (VIM-1; VIM-1 IC50, fluorescence assay) | IC50 (NDM-1; 2,2,2-trifluoroacetate) | IC50 (IMP-1; 2,2,2-trifluoroacetate)
1 | Nc1nc2c(-c3ccc(S(=O)(=O)NC4(CO)CCNC4)c(S(N)(=O)=O)c3-c3nnn[nH]3)cccc2s1 (stereo not drawn) [Example 84, 4-(2-amino-1,3-benzothiazol-4-yl)-N1-[3-(hydroxymethyl)pyrrolidin-3-yl]-3-(1H-tetrazol-5-yl)benzene-1,2-disulfonamide] | 0.0619 nM | 0.403 nM | 1.563 µM | 3.125 µM | 3.125 µM | 1.563 µM | 0.27 nM | 1.00 | 1.563 µM | – | – | –
2 | COCCNCCNS(=O)(=O)c1ccc(-c2cccc3sc(N)nc23)c(-c2nnn[nH]2)c1S(N)(=O)=O [Example 85, 4-(2-aminobenzo[d]thiazol-4-yl)-N1-(2-((2-methoxyethyl)amino)ethyl)-3-(1H-tetrazol-5-yl)benzene-1,2-disulfonamide] | 0.0351 nM | 0.205 nM | 1.563 µM | 3.125 µM | 6.25 µM | 6.25 µM | 0.147 nM | 1.00 | 1.563 µM | – | – | –
3 | Nc1nc2c(-c3ccc(S(=O)(=O)NCC4(O)CCNCC4)c(S(N)(=O)=O)c3-c3nnn[nH]3)cccc2s1 [Example 86, 4-(2-aminobenzo[d]thiazol-4-yl)-N^1-((4-hydroxypiperidin-4-yl)methyl)-3-(1H-tetrazol-5-yl)benzene-1,2-disulfonamide] | 0.0275 nM | 0.129 nM | 1.563 µM | 1.563 µM | 6.25 µM | 1.563 µM | 0.0756 nM | 0.50 | 0.7813 µM | – | – | –
4 | CC(C)(N)CNS(=O)(=O)c1ccc(-c2cccc3sc(N)nc23)c(-c2nnn[nH]2)c1S(N)(=O)=O [Example 87, N^1-(2-amino-2-methylpropyl)-4-(2-aminobenzo[d]thiazol-4-yl)-3-(1H-tetrazol-5-yl)benzene-1,2-disulfonamide] | 0.0367 nM | 0.261 nM | 1.563 µM | 3.125 µM | 6.25 µM | 3.125 µM | 0.197 nM | 0.50 | 0.7813 µM | – | – | –
5 | Nc1nc2c(-c3ccc(S(=O)(=O)NC4CC5CNC4C5)c(S(N)(=O)=O)c3-c3nnn[nH]3)cccc2s1 (stereo not drawn) [Example 88, 4-(2-aminobenzo[d]thiazol-4-yl)-N^1-(2-azabicyclo[2.2.1]heptan-6-yl)-3-(1H-tetrazol-5-yl)benzene-1,2-disulfonamide] | 0.0203 nM | 0.172 nM | 3.125 µM | 3.125 µM | 6.25 µM | 3.125 µM | 0.165 nM | 0.50 | 1.563 µM | – | – | –
6 | Nc1nc2c(-c3ccc(S(=O)(=O)NC4CC5CNC4C5)c(S(N)(=O)=O)c3-c3nnn[nH]3)cccc2s1 (stereo not drawn) [Example 89, 4-(2-aminobenzo[d]thiazol-4-yl)-N^1-(2-azabicyclo[2.2.1]heptan-6-yl)-3-(1H-tetrazol-5-yl)benzene-1,2-disulfonamide] | 0.0581 nM | 0.568 nM | 1.563 µM | 3.125 µM | 6.25 µM | 6.25 µM | 0.23 nM | 1.00 | 1.563 µM | – | – | –
7 | NCCCNS(=O)(=O)c1ccc(-c2cccc3sc(N)nc23)c(-c2nnn[nH]2)c1S(N)(=O)=O.O=C(O)C(F)(F)F [Example 90, 3-(4-(2-aminobenzo[d]thiazol-4-yl)-2-sulfamoyl-3-(1H-tetrazol-5-yl)phenylsulfonamido)propan-1-aminium 2,2,2-trifluoroacetate] | 0.0795 nM | 0.411 nM | 1.563 µM | 1.563 µM | 3.125 µM | 3.125 µM | 0.27 nM | 0.50 | 0.7813 µM | – | – | –
8 | Nc1nc2c(-c3ccc(S(=O)(=O)NCC4(F)CNC4)c(S(N)(=O)=O)c3-c3nnn[nH]3)cccc2s1.O=CO [Example 91, 3-(((4-(2-aminobenzo[d]thiazol-4-yl)-2-sulfamoyl-3-(1H-tetrazol-5-yl)phenyl)sulfonamido)methyl)-3-fluoroazetidin-1-ium formate] | 0.0769 nM | 0.326 nM | 1.563 µM | 1.563 µM | 3.125 µM | 1.563 µM | – | 1.00 | 1.563 µM | 0.327 nM | – | –
9 | CNCCCN(C)S(=O)(=O)c1ccc(-c2cccc3sc(N)nc23)c(-c2nnn[nH]2)c1S(N)(=O)=O.O=C(O)C(F)(F)F [Example 93, 3-(4-(2-aminobenzo[d]thiazol-4-yl)-N-methyl-2-sulfamoyl-3-(1H-tetrazol-5-yl)phenylsulfonamido)-N-methylpropan-1-aminium 2,2,2-trifluoroacetate] | 6.35 nM | 5.29 nM | 3.125 µM | 3.125 µM | 12.5 µM | 6.25 µM | 12.4 nM | 1.00 | 3.125 µM | – | – | –
10 | NC[C@@H]1CCN(S(=O)(=O)c2ccc(-c3cccc4sc(N)nc34)c(-c3nnn[nH]3)c2S(N)(=O)=O)C1.O=C(O)C(F)(F)F [Example 94, (S)-(1-((4-(2-aminobenzo[d]thiazol-4-yl)-2-sulfamoyl-3-(1H-tetrazol-5-yl)phenyl)sulfonyl)pyrrolidin-3-yl)methanaminium 2,2,2-trifluoroacetate] | – | – | 1.563 µM | 2.083 µM | 3.125 µM | 3.646 µM | – | 1.00 | 1.563 µM | 0.973 nM | 0.574 nM | 0.73 nM
